Values of other authors, collected in patent US11555040B2, “Oxepinopyrazole derivatives as inhibitors of P13-kinase activity” (GLAXOSMITHKLINE INTELLECTUAL PROPERTY DEVELOPMENT LIMITED, priority 2017, dated 2023).

System: amphetamine-induced psychosis
Conditions: Law et al. 2012

Structure (SMILES): Cc1ccccc1-n1c(Cn2cnc3c(N)ncnc32)nc2cccc(C)c2c1=O [IC87114]
- efficacy in mouse model of amphetamine-induced psychosis: remarkable efficacy
